In patent EP2326328B1, “USE OF DIHYDRALAZINE FOR THE TREATMENT OF DISEASES RELATED TO ELEVATED SEMICARBAZIDE SENSITIVE AMINE-OXIDASE (SSAO) ACTIVITY” (Semmelweis Egyetem, priority 2008, dated 2010):

Target: T1, human serum SSAO (Homo sapiens, UniProt Q16853)
T1 construct: from tissue; host or cells: human serum
T1 sequence (Q16853 29-763 limits assumed): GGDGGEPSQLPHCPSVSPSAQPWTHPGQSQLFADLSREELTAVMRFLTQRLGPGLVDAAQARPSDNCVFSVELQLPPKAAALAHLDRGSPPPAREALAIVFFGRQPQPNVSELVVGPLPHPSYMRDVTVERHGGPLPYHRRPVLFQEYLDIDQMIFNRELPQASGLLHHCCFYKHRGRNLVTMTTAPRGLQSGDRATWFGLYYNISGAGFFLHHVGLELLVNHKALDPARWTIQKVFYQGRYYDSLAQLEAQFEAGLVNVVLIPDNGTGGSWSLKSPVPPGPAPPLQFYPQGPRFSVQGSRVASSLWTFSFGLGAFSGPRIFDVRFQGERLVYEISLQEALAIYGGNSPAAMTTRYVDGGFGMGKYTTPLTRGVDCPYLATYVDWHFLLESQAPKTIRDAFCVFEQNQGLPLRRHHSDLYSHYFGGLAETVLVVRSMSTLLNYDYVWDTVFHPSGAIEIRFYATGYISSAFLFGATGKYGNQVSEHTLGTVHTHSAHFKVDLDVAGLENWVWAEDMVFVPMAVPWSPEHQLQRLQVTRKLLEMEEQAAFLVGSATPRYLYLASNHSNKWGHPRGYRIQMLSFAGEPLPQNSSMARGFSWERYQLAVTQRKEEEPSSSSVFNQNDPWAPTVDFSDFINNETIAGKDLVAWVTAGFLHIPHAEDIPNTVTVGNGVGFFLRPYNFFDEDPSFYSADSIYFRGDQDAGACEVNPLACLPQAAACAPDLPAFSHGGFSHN
Assay: radiochemical determination of SSAO activity in human serum (14C-benzylamine substrate)
Type: biochemical
Details: 20 min pre-incubation at room temperature, 37°C 40 min
Experimental: In the experiment human serum was used in the following way: blood samples were collected without anticoagulant, then stored at 4°C for 15 minutes and centrifuged (4°C, 2500 g/10 min). The supernatant was stored at -80°C until the measurement of the enzyme activity.
A radiochemical procedure (Yu P.H., Zuo D.M., Biochem. Pharmacol., 1992, 43, 307-312) was adapted for determining SSAO activities in the human serum. It is based on the determination of the quantity of ^14C-benzaldehyde formed by the enzyme reaction of ^14C-benzylamine.
The preparations containing the serum and the dihydralazine enzyme inhibitor were pre-incubated at room temperature for 20 min. The enzyme reaction was started with ^14C-benzylamine substrate (- 200000 dpm/tube). […] The enzyme activity was determined by liquid scintillation counting (600 µl supernatant + 5ml Aquasafe), using the formula below: ([dpm(sample)-dpm0ʹ] x 1.6 x 10 x 1.5)/(measured substrate activity dpm x mg protein) [formula] standing for: 1.6: extraction volume; 10: molar activity; 1.5: correction factor for the incubation time; dpm: disintegrations per minute (unit of radioactivity)
The inhibition was calculated in the % inhibition compared to the control ('control' sample not containing the inhibitor compound) after correction with the background ('blank' sample). […]

IC20: 500 nM
Structure (SMILES): NNc1nnc(NN)c2ccccc12 [dihydralazine]
